Data as given in article PMC7076388 (Pharmaceutics, 2020).
pIC50: −log10 of the molar value. “Also recorded” adds a separate entry of the source. Where two headings read alike, the source gives them in different places.

Key:
RAW 264.7 cells [1] = experiment: MTT cell viability, RAW 264.7 macrophages; format: cell-based, murine; conditions: for cytotoxic effect on RAW 264.7 viability: up to 100 µM, 24 h
Method: (§1) Adenocarcinoma gastric cells (AGS; Sigma-Aldrich, St. Louis, MO, USA), murine-macrophage cell line (RAW 264.7; American Type Culture Collection, LGC Standards S.L.U., Barcelona, Spain), and human foetal lung fibroblasts (MRC-5; ECACC, Porton Down Salisbury, UK) were cultured as a monolayer at 37 °C in a humidified incubator with 5% carbon dioxide. AGS and RAW 264.7 cells were grown in DMEM, supplemented with 1% streptomycin/penicillin and 10% FBS (Gibco®). MRC-5 cells were grown in MEM, supplemented with 1% streptomycin/penicillin and 10% FBS.
(§2) Cell viability was evaluated by the MTT reduction assay. Cells were cultured in 96-well plates (15,000 cells/well for AGS, 25,000 cells/well for RAW and 20,000 cells/well for MRC-5) and allowed to attach for 24 h. After incubation with compounds for 24 h, MTT (0.5 mg/mL final concentration) was added to each well and the plate was incubated for 75 min at 37 °C. Formazan crystals were dissolved by the addition of a DMSO: isopropanol mixture (3:1) and then quantified spectrophotometrically at 570 nm using a microplate reader (Multiskan Thermo Fisher Scientific Oy, Vantaa, Finland).

[2] = test system: LPS-induced •NO production in RAW 264.7 cells; experiment: LPS-induced NO production in RAW 264.7 (Griess); format: cell-based, murine; conditions: Mus musculus, RAW264.7; RAW 264.7, LPS 1 µg/mL; read-out: IC50 (LPS-dependent •NO production)
Method: RAW 264.7 cells were cultured in 96-well plates (35,000 cells/well) for 24 h and then pre-treated with different concentrations of each compound. After 2 h, LPS was added (final concentration 1 µg/mL) and the plates were incubated at 37 °C, in a humidified atmosphere of 5% CO2. After 22 h, 75 µL of cell supernatant was transferred to a 96-well plate and mixed with 75 µL of Griess reagent (1% sulfanilamide and 0.1% naphthylethylenediamine dihydrochloride in 2% H3PO4). The plate was incubated at room temperature for 10 min in the dark and then the absorbance was read at 540 nm using a microplate reader (Multiskan Thermo Fisher Scientific Oy, Vantaa, Finland).

[3] = target: T1, LOX from glycine max (soybean) (Glycine max, UniProt P08170); experiment: Lipoxygenase glycine max (soybean) assay; format: biochemical; conditions: for LOX inhibition at single concentration: 100 µM; for pIC50: dose-response assay, read-out: IC50 for LOX inhibition
T1 construct: purchased Sigma-Aldrich
T1 sequence (P08170 1-839): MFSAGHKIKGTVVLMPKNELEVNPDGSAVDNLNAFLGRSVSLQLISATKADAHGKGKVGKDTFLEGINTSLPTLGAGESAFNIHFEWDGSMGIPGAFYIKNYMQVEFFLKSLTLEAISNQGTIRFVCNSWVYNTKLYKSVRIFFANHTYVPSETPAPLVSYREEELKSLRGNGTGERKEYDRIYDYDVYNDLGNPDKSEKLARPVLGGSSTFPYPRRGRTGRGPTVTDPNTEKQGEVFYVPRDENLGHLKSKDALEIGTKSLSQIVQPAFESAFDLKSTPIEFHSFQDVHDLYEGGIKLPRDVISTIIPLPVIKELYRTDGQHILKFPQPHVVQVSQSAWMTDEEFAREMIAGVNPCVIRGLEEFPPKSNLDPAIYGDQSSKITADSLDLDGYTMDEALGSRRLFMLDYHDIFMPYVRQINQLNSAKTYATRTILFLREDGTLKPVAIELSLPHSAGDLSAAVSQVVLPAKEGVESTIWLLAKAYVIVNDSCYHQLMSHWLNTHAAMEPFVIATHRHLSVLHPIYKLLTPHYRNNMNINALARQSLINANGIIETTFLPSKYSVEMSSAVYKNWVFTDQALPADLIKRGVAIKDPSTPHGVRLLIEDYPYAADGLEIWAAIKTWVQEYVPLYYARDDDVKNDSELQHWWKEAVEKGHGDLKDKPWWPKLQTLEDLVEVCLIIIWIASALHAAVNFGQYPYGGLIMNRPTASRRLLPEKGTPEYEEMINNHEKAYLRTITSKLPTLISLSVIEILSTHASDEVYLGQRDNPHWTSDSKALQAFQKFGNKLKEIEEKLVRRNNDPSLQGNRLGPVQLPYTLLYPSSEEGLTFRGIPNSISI
Method: The inhibitory effect on LOX was assessed in 96-well plates, using a modified version of a previously reported procedure from Pereira et al.. […] After 5 min pre-incubation at room temperature, the reaction was started by addition of linoleic acid substrate (20 µL of a 4.18 mM solution in ethanol). The reaction was monitored at 234 nm using a multiplate reader (Multiskan Thermo Fisher Scientific Oy, Vantaa, Finland), for 3 min.

AGS cells = experiment: MTT cell viability, AGS cells; format: cell-based; conditions: 24 h; for toxicity towards AGS cells: 100 µM
Method: as §1, §2

[4] = target: T2, 20S proteasome isolated from erythrocytes (Homo sapiens, UniProt P28074); experiment: 20S proteasome inhibition (chymotrypsin-like activity); format: biochemical; design: purified 20S proteasome isolated from erythrocytes (Enzo Life Sciences); purchased Enzo Life Sciences; host or cells: erythrocytes; conditions: 100 µM
Method: Proteasome activity was measured by adapting a method described by Silva et al.. The substrate used to study chymotrypsin-like enzyme activity was Suc-Leu-Leu-Val-Tyr-AMC and the enzyme used was purified 20S proteasome isolated from erythrocytes (Enzo Life Sciences). […] The plate was incubated at 37 °C in the dark for 2 h. […] Lactacystin was used as positive control.

COX-1 [5] = target: T3, COX-1 (Ovis aries, UniProt P05979); experiment: COX fluorescent inhibitor screening assay, COX-1; format: biochemical
T3 construct: purchased Cayman Chemical
T3 sequence (P05979 25-600): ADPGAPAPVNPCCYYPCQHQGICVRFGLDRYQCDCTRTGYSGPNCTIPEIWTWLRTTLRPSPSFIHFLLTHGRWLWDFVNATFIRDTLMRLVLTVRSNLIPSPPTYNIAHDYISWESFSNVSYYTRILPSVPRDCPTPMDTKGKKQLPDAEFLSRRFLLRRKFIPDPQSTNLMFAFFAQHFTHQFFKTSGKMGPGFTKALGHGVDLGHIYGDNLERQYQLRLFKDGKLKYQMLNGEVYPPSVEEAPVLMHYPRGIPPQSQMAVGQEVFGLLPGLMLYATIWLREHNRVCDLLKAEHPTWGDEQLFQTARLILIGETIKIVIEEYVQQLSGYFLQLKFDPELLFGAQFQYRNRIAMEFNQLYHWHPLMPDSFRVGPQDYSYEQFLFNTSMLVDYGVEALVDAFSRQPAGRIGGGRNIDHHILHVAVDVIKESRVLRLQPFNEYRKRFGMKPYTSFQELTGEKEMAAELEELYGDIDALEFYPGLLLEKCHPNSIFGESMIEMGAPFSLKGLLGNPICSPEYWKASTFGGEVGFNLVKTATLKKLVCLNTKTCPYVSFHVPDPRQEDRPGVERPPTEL
Method: (§3) The assay was performed using the COX fluorescent inhibitor screening assay kit (Cayman chemical, MI, USA), with some modifications. […] After 5 min of incubation at room temperature, 5 µL of 10-acetyl-3,7-dihydroxyphenoxazine (ADHP) and 20 µL of a solution containing arachidonic acid (0.5 mM) and KOH (2.5 mM) were added to each well.

COX-2 [6] = target: T4, COX-2 (Homo sapiens, UniProt P35354); experiment: COX fluorescent inhibitor screening assay, COX-2; format: biochemical
T4 construct: purchased Cayman Chemical
T4 sequence (P35354 18-604): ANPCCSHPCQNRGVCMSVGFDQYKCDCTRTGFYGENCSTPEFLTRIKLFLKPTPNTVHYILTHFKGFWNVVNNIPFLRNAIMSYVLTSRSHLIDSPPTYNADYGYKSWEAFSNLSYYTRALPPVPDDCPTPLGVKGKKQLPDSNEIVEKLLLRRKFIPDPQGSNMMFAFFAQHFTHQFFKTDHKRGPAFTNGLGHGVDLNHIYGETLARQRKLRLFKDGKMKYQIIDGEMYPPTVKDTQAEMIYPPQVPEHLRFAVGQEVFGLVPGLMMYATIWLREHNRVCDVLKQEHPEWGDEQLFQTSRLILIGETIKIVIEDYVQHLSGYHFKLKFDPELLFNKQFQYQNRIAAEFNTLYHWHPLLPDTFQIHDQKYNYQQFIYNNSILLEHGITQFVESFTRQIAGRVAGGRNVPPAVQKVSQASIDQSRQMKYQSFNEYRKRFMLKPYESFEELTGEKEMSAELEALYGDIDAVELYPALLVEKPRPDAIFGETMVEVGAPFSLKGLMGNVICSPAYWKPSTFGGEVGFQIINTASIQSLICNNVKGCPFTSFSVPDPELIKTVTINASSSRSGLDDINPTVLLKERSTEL
Method: as §3

[7] = target: T2, 20S proteasome isolated from erythrocytes; conditions: reported in literature; cited from earlier work
RAW 264.7 cells [8] = test system: RAW 264.7 cells; design: method as in PMID 30987203; conditions: up to 100 µM, 24 h, MTT; cited from earlier work
[9] = test system: LPS-induced •NO production in RAW 264.7 cells; conditions: preliminary study; cited from earlier work
[10] = target: T1, LOX from glycine max (soybean); design: method as in PMID 30987203; conditions: 100 µM; cited from earlier work
COX-1 [11] = target: T3, COX-1; design: method as in PMID 30987203; conditions: 25 µM; cited from earlier work
COX-2 [12] = target: T4, COX-2; design: method as in PMID 30987203; conditions: 25 µM; low selectivity towards COX-2; cited from earlier work
[13] = MTT cell viability, MRC-5 cells; format: cell-based; conditions: human, MRC-5 cells (human foetal lung fibroblasts)
Method: as §1, §2

[14] = Solubility in enzymatic assay buffer; format: physicochemical

Row | Compound | pIC50 [3] | cytotoxic effect on RAW 264.7 viability (RAW 264.7 cells [1]) | LOX inhibition at single concentration [3] | toxicity towards AGS cells (AGS cells) | other results
1 | COc1ccc2cc(C(C)C(=O)NC(Cc3c[nH]c4ccccc34)C(=O)NC(=Cc3ccccc3)C(=O)O)ccc2c1 [Compound 3, Npx-L-Trp-Z-ΔPhe-OH] | 4.25 | did not show any statistically significant cytotoxic effects | significantly inhibit the LOX enzyme to a similar level to naproxen | slightly cytotoxic | pIC50 [2]: 4.19; remaining activity at 100 µM ([4]; read-out: 20S proteasome enzyme activity remaining): 52%
2 | COc1ccc2cc(C(C)C(=O)NC(C)C(=O)NC(=Cc3ccccc3)C(=O)O)ccc2c1 [Compound 4, Npx-L-Ala-Z-ΔPhe-OH] | 4.25 | did not show any statistically significant cytotoxic effects | significantly inhibit the LOX enzyme to a similar level to naproxen | not toxic | inhibition at 25 µM (COX-1 [5]): 9%; inhibition at 25 µM (COX-2 [6]): 66%
3 | COc1ccc2cc([C@H](C)C(=O)O)ccc2c1 [Naproxen, reference compound] |  |  |  |  | inhibition at 25 µM (COX-1 [5]): 42.3%; inhibition at 25 µM (COX-2 [6]): 61.5%; proteasome inhibition [7]: not be an inhibitor of proteasome
4 | COC(=O)C(=Cc1ccccc1)NC(=O)C(CC(=O)O)NC(=O)C(C)c1ccc2cc(OC)ccc2c1 [Compound 2, Npx-L-Asp-Z-ΔPhe-OMe] | 4.17 |  |  | slightly cytotoxic | cytotoxic effect on RAW 264.7 viability (RAW 264.7 cells [8]): did not show any statistically significant cytotoxic effects; inhibition of LPS-induced production of •NO [9]: modest ability to inhibit; LOX inhibition at single concentration [10]: significantly inhibit the LOX enzyme to a similar level to naproxen; also recorded: high levels of lipoxygenase (LOX) inhibition; COX inhibition level (COX-1) (COX-1 [11]): modest levels of COX inhibition; COX inhibition level (COX-2) (COX-2 [12]): modest levels of COX inhibition
5 | COc1ccc2cc(C(C)C(=O)NC(CCCCN)C(=O)NC(=Cc3ccccc3)C(=O)O)ccc2c1 [Compound 5, Npx-L-Lys-Z-ΔPhe-OH] |  | small cytotoxic effect | not able to inhibit LOX activity | slightly cytotoxic | viability at 24 h, 100 µM [13]: ~79%
6 | COC(=O)C(=Cc1ccccc1)NC(=O)C(Cc1ccc(O)cc1)NC(=O)C(C)c1ccc2cc(OC)ccc2c1 [Compound 7, Npx-L-Tyr-Z-ΔPhe-OMe] |  |  |  |  | pIC50 (RAW 264.7 cells [1]; Mus musculus, RAW264.7, 24 h): 4.64; pIC50 (AGS cells; Homo sapiens, AGS): 4.96; viability at 24 h, 100 µM [13]: ~87%; solubility in COX assay medium ([14]; Tris-HCl pH 8.0): insoluble in the assay medium; solubility in LOX assay buffer solution ([14]; phosphate buffer pH 9.0): insolubility in the assay buffer solution; 20S proteasome inhibition [4]: not able to inhibit the 20S proteasome

Now from value to compound, other results behind:

Row | pIC50 [3] | Compound | cytotoxic effect on RAW 264.7 viability (RAW 264.7 cells [1]) | LOX inhibition at single concentration [3] | toxicity towards AGS cells (AGS cells) | other results
7 | 4.31 | CC=C(NC(=O)C(Cc1c[nH]c2ccccc12)NC(=O)C(C)c1ccc2cc(OC)ccc2c1)C(=O)O [Compound 8, Npx-L-Trp-Z-ΔAbu-OH] | did not show any statistically significant cytotoxic effects | significantly inhibit the LOX enzyme to a similar level to naproxen | not toxic | pIC50 [2]: 4.07
8 | 4.22 | COc1ccc2cc(C(C)C(=O)NC(CCSC)C(=O)NC(=Cc3ccccc3)C(=O)O)ccc2c1 [Compound 6, Npx-L-Met-Z-ΔPhe-OH] | did not show any statistically significant cytotoxic effects | significantly inhibit the LOX enzyme to a similar level to naproxen | not toxic | 
